Measured values: patent US20230082430A1 (C4 Therapeutics, Inc., priority 2019, published 2023)

What follows are compounds tested on NCIH929.1 cells (assay: Cell viability assay for Table 2 (CellTiter-Glo 2.0, ATP quantification, 96 hr)). Details: 96 h, NCIH929.1 cell viability, 96 hr, top concentration 1 μM, 14 points half log titration; read-out: IC50.
Format: cell-based
Source text: Cell Viability Assay for Table 2
CellTiter-Glo® 2.0 Assay was purchased from Promega (Madison, Wis., USA). NCIH929.1 cell line was purchased from ATCC (Manassas, Va., USA). Cell culture flasks and 384-well microplates were acquired from VWR (Radnor, Pa., USA).

`CC1(C(=O)N2CCC(Cc3ccc(Cc4ccc5c6c(cccc46)C(=O)N5C4CCC(=O)NC4=O)cc3)CC2)CCC1` (centres unmarked) [Compound 150, 3-(6-(4-((1-(1-methylcyclobutane-1-carbonyl)piperidin-4-yl)methyl)benzyl)-2-oxobenzo[cd]indol-1(2H)-yl)piperidine-2,6-dione] and `CC1(C(=O)N2CCC(c3ccc(Cc4ccc5c6c(cccc46)C(=O)N5C4CCC(=O)NC4=O)cc3)CC2)CCC1` (centres unmarked) [Compound 169, 3-[6-[[4-[1-(1-methylcyclobutanecarbonyl)-4-piperidyl]phenyl]methyl]-2-oxo-benzo[cd]indol-1-yl]piperidine-2,6-dione] cannot be ordered by IC50: under 1 nM for the first, under 1 nM for the second.

`N#Cc1ccc(N2CCC(Cc3ccc(Cc4ccc5c6c(cccc46)C(=O)N5C4CCC(=O)NC4=O)cc3)CC2)c(F)c1` (centres unmarked) [Compound 151, 4-(4-(4-((1-(2,6-dioxopiperidin-3-yl)-2-oxo-1,2-dihydrobenzo[cd]indol-6-yl)methyl)benzyl)piperidin-1-yl)-3-fluorobenzonitrile] and `N#Cc1ccc(N2CCC(Nc3ccc(Cc4ccc5c6c(cccc46)C(=O)N5C4CCC(=O)NC4=O)cc3)CC2)c(F)c1` (centres unmarked) [Compound 166, 4-[4-[4-[[1-(2,6-dioxo-3-piperidyl)-2-oxo-benzo[cd]indol-6-yl]methyl]anilino]-1-piperidyl]-3-fluoro-benzonitrile] cannot be ordered by IC50: under 1 nM for the first, under 1 nM for the second.

`O=C1CCC(N2C(=O)c3cccc4c(Cc5ccc(CC6CCN(Cc7ccccc7)CC6)cc5)ccc2c34)C(=O)N1` (centres unmarked) [Compound 152, 3-(6-(4-((1-benzylpiperidin-4-yl)methyl)benzyl)-2-oxobenzo[cd]indol-1(2H)-yl)piperidine-2,6-dione] and `O=C1CCC(N2C(=O)c3cccc4c(Cc5ccc(CN6CCC(Cc7ccc(F)cc7)CC6)cc5)ccc2c34)C(=O)N1` (centres unmarked) [Compound 157, 3-[6-[[4-[[4-[(4-fluorophenyl)methyl]-1-piperidyl]methyl]phenyl]methyl]-2-oxo-benzo[cd]indol-1-yl]piperidine-2,6-dione] cannot be ordered by IC50: under 1 nM for the first, under 1 nM for the second.

`CC1(C(=O)N2CCC(n3cc(C(N)c4ccc5c6c(cccc46)C(=O)N5C4CCC(=O)NC4=O)cn3)CC2)CCC1` (centres unmarked) [Compound 153, 3-(6-(amino(1-(1-(1-methylcyclobutane-1-carbonyl)piperidin-4-yl)-1H-pyrazol-4-yl)methyl)-2-oxobenzo[cd]indol-1(2H)-yl)piperidine-2,6-dione] and `CC1(C(=O)N2CCC(n3cc(Sc4ccc5c6c(cccc46)C(=O)N5C4CCC(=O)NC4=O)cn3)CC2)CCC1` (centres unmarked) [Compound 174, 3-[6-[1-[1-(1-methylcyclobutanecarbonyl)-4-piperidyl]pyrazol-4-yl]sulfanyl-2-oxo-benzo[cd]indol-1-yl]piperidine-2,6-dione] cannot be ordered by IC50: under 1 nM for the first, under 1 nM for the second.

`CC(C)(C)OC(=O)N1CCC(n2cc(C(N)c3ccc4c5c(cccc35)C(=O)N4C3CCC(=O)NC3=O)cn2)CC1` (centres unmarked) [Compound 154, tert-butyl 4-(4-(amino(1-(2,6-dioxopiperidin-3-yl)-2-oxo-1,2-dihydrobenzo[cd]indol-6-yl)methyl)-1H-pyrazol-1-yl)piperidine-1-carboxylate] and `CC1(C(=O)N2CCC(n3cc(S(=O)(=O)c4ccc5c6c(cccc46)C(=O)N5C4CCC(=O)NC4=O)cn3)CC2)CCC1` (centres unmarked) [Compound 175, 3-[6-[1-[1-(1-methylcyclobutanecarbonyl)-4-piperidyl]pyrazol-4-yl]sulfonyl-2-oxo-benzo[cd]indol-1-yl]piperidine-2,6-dione] cannot be ordered by IC50: under 1 nM for the first, under 100 nM for the second.

`O=C1CCC(N2C(=O)c3cccc4c(Cc5ccc(CN6CCc7ccccc7C6)cc5)ccc2c34)C(=O)N1` (centres unmarked) [Compound 155, 3-[6-[[4-(3,4-dihydro-1H-isoquinolin-2-ylmethyl)phenyl]methyl]-2-oxo-benzo[cd]indol-1-yl]piperidine-2,6-dione] and `O=C1CCC(N2C(=O)c3cccc4c(Cc5ccc(CN6CCN(c7ccccc7F)CC6)cc5)ccc2c34)C(=O)N1` (centres unmarked) [Compound 188, 3-[6-[[4-[[4-(2-fluorophenyl)piperazin-1-yl]methyl]phenyl]methyl]-2-oxo-benzo[cd]indol-1-yl]piperidine-2,6-dione] cannot be ordered by IC50: under 1 nM for the first, under 1 nM for the second.

`O=C1CCC(N2C(=O)c3cccc4c(Cc5ccc(CN6C7CCC6COC7)cc5)ccc2c34)C(=O)N1` (centres unmarked) [Compound 156, 3-[6-[[4-(3-oxa-8-azabicyclo[3.2.1]octan-8-ylmethyl)phenyl]methyl]-2-oxo-benzo[cd]indol-1-yl]piperidine-2,6-dione] and `CC(C)(C)C1CCN(Cc2ccc(Cc3ccc4c5c(cccc35)C(=O)N4C3CCC(=O)NC3=O)cc2)CC1` (centres unmarked) [Compound 158, 3-[6-[[4-[(4-tert-butyl-1-piperidyl)methyl]phenyl]methyl]-2-oxo-benzo[cd]indol-1-yl]piperidine-2,6-dione] cannot be ordered by IC50: under 1 nM for the first, under 1 nM for the second.

`O=C1CCC(N2C(=O)c3cccc4c(Cc5ccc(CN6CCN(CC(F)(F)F)CC6)cc5)ccc2c34)C(=O)N1` (centres unmarked) [Compound 161, 3-(2-Oxo-6-{4-[4-(2,2,2-trifluoro-ethyl)-piperazin-1-ylmethyl]-benzyl}-2H-benzo[cd]indol-1-yl)-piperidine-2,6-dione] and `CC1(CN2CCN(c3ccc(Cc4ccc5c6c(cccc46)C(=O)N5C4CCC(=O)NC4=O)cc3)CC2)CCC1` (centres unmarked) [Compound 168, 3-[6-[[4-[4-[(1-methylcyclobutyl)methyl]piperazin-1-yl]phenyl]methyl]-2-oxo-benzo[cd]indol-1-yl]piperidine-2,6-dione] cannot be ordered by IC50: under 1 nM for the first, under 1 nM for the second.

`O=C1CCC(N2C(=O)c3cccc4c(Cc5cnn(C6CCCCC6)c5)ccc2c34)C(=O)N1` (centres unmarked) [Compound 162, 3-[6-[(1-cyclohexylpyrazol-4-yl)methyl]-2-oxo-benzo[cd]indol-1-yl]piperidine-2,6-dione] and `O=C1CCC(N2C(=O)c3cccc4c(Cc5cnn(C6CC(OCc7ccccc7)C6)c5)ccc2c34)C(=O)N1` (centres unmarked) [Compound 177, 3-[6-[[1-(3-benzyloxycyclobutyl)pyrazol-4-yl]methyl]-2-oxo-benzo[cd]indol-1-yl]piperidine-2,6-dione] cannot be ordered by IC50: under 1 nM for the first, under 100 nM for the second.

`CC1(C(=O)N2CCC(n3cc(C4(c5ccc6c7c(cccc57)C(=O)N6C5CCC(=O)NC5=O)CC4)cn3)CC2)CCC1` (centres unmarked) [Compound 163, 3-[6-[1-[1-[1-(1-methylcyclobutanecarbonyl)-4-piperidyl]pyrazol-4-yl]cyclopropyl]-2-oxo-benzo[cd]indol-1-yl]piperidine-2,6-dione] and `CC1(CN2CCC(n3cc(C4(c5ccc6c7c(cccc57)C(=O)N6C5CCC(=O)NC5=O)CC4)cn3)CC2)CCC1` (centres unmarked) [Compound 164, 3-[6-[1-[1-[1-[(1-methylcyclobutyl)methyl]-4-piperidyl]pyrazol-4-yl]cyclopropyl]-2-oxo-benzo[cd]indol-1-yl]piperidine-2,6-dione] cannot be ordered by IC50: under 1 nM for the first, under 100 nM for the second.

`CN(c1ccc(Cc2ccc3c4c(cccc24)C(=O)N3C2CCC(=O)NC2=O)cc1)C1CCN(c2ccc(C#N)cc2F)CC1` (centres unmarked) [Compound 165, 4-[4-[4-[[1-(2,6-dioxo-3-piperidyl)-2-oxo-benzo[cd]indol-6-yl]methyl]-N-methyl-anilino]-1-piperidyl]-3-fluoro-benzonitrile] and `N#Cc1ccc(N2CCC(Oc3ccc(Cc4ccc5c6c(cccc46)C(=O)N5C4CCC(=O)NC4=O)cc3)CC2)c(F)c1` (centres unmarked) [Compound 171, 4-[4-[4-[[1-(2,6-dioxo-3-piperidyl)-2-oxo-benzo[cd]indol-6-yl]methyl]phenoxy]-1-piperidyl]-3-fluoro-benzonitrile] cannot be ordered by IC50: under 1 nM for the first, under 1 nM for the second.

`CC1(C(=O)N2CCN(c3ccc(Cc4ccc5c6c(cccc46)C(=O)N5C4CCC(=O)NC4=O)cc3)CC2)CCC1` (centres unmarked) [Compound 167, 3-[6-[[4-[4-(1-methylcyclobutanecarbonyl)piperazin-1-yl]phenyl]methyl]-2-oxo-benzo[cd]indol-1-yl]piperidine-2,6-dione] and `CC1(CN2CCC(c3ccc(Cc4ccc5c6c(cccc46)C(=O)N5C4CCC(=O)NC4=O)cc3)CC2)CCC1` (centres unmarked) [Compound 170, 3-[6-[[4-[1-[(1-methylcyclobutyl)methyl]-4-piperidyl]phenyl]methyl]-2-oxo-benzo[cd]indol-1-yl]piperidine-2,6-dione] cannot be ordered by IC50: under 1 nM for the first, under 1 nM for the second.

`N#Cc1ccc(N2CCN(Cc3ccc(Cc4ccc5c6c(cccc46)C(=O)N5C4CCC(=O)NC4=O)cc3)C(=O)C2)c(F)c1` (centres unmarked) [Compound 172, 4-[4-[[4-[[1-(2,6-dioxo-3-piperidyl)-2-oxo-benzo[cd]indol-6-yl]methyl]phenyl]methyl]-3-oxo-piperazin-1-yl]-3-fluoro-benzonitrile] and `CC1(C(=O)N2CCC(N3CCN(Cc4ccc5c6c(cccc46)C(=O)N5C4CCC(=O)NC4=O)C3=O)CC2)CCC1` (centres unmarked) [Compound 181, 3-[6-[[3-[1-(1-methylcyclobutanecarbonyl)-4-piperidyl]-2-oxo-imidazolidin-1-yl]methyl]-2-oxo-benzo[cd]indol-1-yl]piperidine-2,6-dione] cannot be ordered by IC50: under 1 nM for the first, under 1 nM for the second.

`CC1(C(=O)N2CCC(c3ccn(Cc4ccc5c6c(cccc46)C(=O)N5C4CCC(=O)NC4=O)n3)CC2)CCC1` (centres unmarked) [Compound 180, 3-[6-[[3-[1-(1-methylcyclobutanecarbonyl)-4-piperidyl]pyrazol-1-yl]methyl]-2-oxo-benzo[cd]indol-1-yl]piperidine-2,6-dione] and `CC1(C(=O)N2CCC(n3cc(Cc4ccc5c6c(cccc46)C(=O)N5C4CCC(=O)NC4=O)nn3)CC2)CCC1` (centres unmarked) [Compound 192, 3-[6-[[1-[1-(1-methylcyclobutanecarbonyl)-4-piperidyl]triazol-4-yl]methyl]-2-oxo-benzo[cd]indol-1-yl]piperidine-2,6-dione] cannot be ordered by IC50: under 1 nM for the first, under 1 nM for the second.

Compound `CC1(CN2CCC(n3cc(Cc4ccc5c6c(cccc46)C(=O)N5C4CCC(=O)NC4=O)cn3)(C(F)(F)F)CC2)CCC1` (centres unmarked) [Compound 191, 3-[6-[[1-[1-[(1-methylcyclobutyl)methyl]-4-(trifluoromethyl)-4-piperidyl]pyrazol-4-yl]methyl]-2-oxo-benzo[cd]indol-1-yl]piperidine-2,6-dione] has an IC50 of under 1 nM.
